Test results reported in ChEMBL document CHEMBL3600282, “Four new ginsenosides from red ginseng with inhibitory activity on melanogenesis in melanoma cells” (Bioorg Med Chem Lett, 2015).
Activity calls are given as the source filed them. The rule behind the calls is not given here.

Legend:
B16 [1] = assay: Inhibition of alpha-MSH-induced melanogenesis in mouse B16 cells assessed as reduction of melanin content at 100 uM after 48 hrs; type: functional, cell-based
B16 [2] = assay: Inhibition of alpha-MSH-induced melanogenesis in mouse B16 cells assessed as reduction of melanin content after 48 hrs; type: functional, cell-based
[3] = Cytotoxicity against mouse B16 cells assessed as cell viability up to 100 uM after 48 hrs by MTT assay; type: cell-based; settings: read-out: Activity
[4] = molecular target: T1, Tyrosinase (Mus musculus) (UniProt P11344); assay: Inhibition of alpha-MSH-induced tyrosinase activity in mouse B16 cells assessed as reduction of melanin content using L-DOPA as substrate after 2 hrs; type: cell-based
T1 sequence (whole entry): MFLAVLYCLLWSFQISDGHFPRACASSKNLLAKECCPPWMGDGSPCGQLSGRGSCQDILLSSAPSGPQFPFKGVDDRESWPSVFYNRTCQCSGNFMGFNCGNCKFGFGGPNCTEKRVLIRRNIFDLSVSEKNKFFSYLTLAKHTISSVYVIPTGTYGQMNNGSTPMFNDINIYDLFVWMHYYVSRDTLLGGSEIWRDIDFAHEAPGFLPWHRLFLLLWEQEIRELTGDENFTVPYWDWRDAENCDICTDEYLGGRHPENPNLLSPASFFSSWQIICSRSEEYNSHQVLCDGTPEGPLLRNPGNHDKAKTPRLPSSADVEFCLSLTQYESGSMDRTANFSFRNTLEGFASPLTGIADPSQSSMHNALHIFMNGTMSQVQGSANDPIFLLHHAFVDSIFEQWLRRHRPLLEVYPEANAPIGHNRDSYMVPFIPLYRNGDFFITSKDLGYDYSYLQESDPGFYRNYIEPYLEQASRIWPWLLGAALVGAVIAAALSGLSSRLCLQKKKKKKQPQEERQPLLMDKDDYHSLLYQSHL

B16 [5] = assay: Inhibition of alpha-MSH-induced melanogenesis in mouse B16 cells assessed as reduction of melanin content at 25 to 100 uM after 48 hrs; type: functional, cell-based
B16 [6] = assay: Inhibition of alpha-MSH-induced melanogenesis in mouse B16 cells assessed as reduction of melanin content at 200 uM after 48 hrs; type: functional, cell-based

CC(=O)OC[C@H]1O[C@@H](O[C@H]2[C@H](O[C@H]3CC[C@]4(C)[C@H]5C[C@@H](O)[C@@H]6[C@@H](/C(C)=C\CC=C(C)C)CC[C@@]6(C)[C@]5(C)CC[C@H]4C3(C)C)O[C@H](CO)[C@@H](O)[C@@H]2O)[C@H](O)[C@@H](O)[C@@H]1O
inhibition (B16 [1]): Active | inhibition (B16 [2]): Dose-dependent effect | viability at 48 h [3]: 95% | inhibition [4]: Dose-dependent effect

CC(C)=CCC[C@](C)(O)[C@H]1CC[C@]2(C)[C@@H]1[C@H](O)C[C@@H]1[C@@]3(C)CC[C@H](O)C(C)(C)[C@@H]3[C@@H](O[C@@H]3O[C@H](CO)[C@@H](O[C@H]4O[C@H](CO)[C@@H](O)[C@H](O)[C@H]4O)[C@H](O)[C@H]3O)C[C@]12C
inhibition (B16 [5]): inactive | viability at 48 h [3]: 95%

COC(/C=C(\C)[C@H]1CC[C@]2(C)[C@@H]1[C@H](O)C[C@@H]1[C@@]3(C)CC[C@H](O[C@@H]4O[C@H](CO)[C@@H](O)[C@H](O)[C@H]4O[C@@H]4O[C@H](CO)[C@@H](O)[C@H](O)[C@H]4O)C(C)(C)[C@@H]3CC[C@]12C)C1OC1(C)C (stereo partly drawn)
inhibition (B16 [1]): Active | inhibition (B16 [2]): Dose-dependent effect | viability at 48 h [3]: 95% | inhibition [4]: Dose-dependent effect

CCCCOC(=O)[C@H]1O[C@@H](O[C@H]2CC[C@]3(C)[C@H]4CC=C5[C@@H]6CC(C)(C)CC[C@]6(C(=O)O[C@@H]6O[C@H](CO)[C@@H](O)[C@H](O)[C@H]6O)CC[C@@]5(C)[C@]4(C)CC[C@H]3C2(C)C)[C@H](O[C@@H]2O[C@H](CO)[C@@H](O)[C@H](O)[C@H]2O)[C@@H](O)[C@@H]1O
inhibition (B16 [5]): inactive | viability at 48 h [3]: 95%

OC[C@H]1O[C@@H](Oc2ccc(O)cc2)[C@H](O)[C@@H](O)[C@@H]1O
inhibition (B16 [6]): Active
